Assay: Storage stability of thiol ligands (dimerization to disulfide)
Assay type: physicochemical
Method: In a second, alternative approach for hydrolysis, the debenzylidinated thioester (300 mg) was dissolved in methanol (5 ml). […] Air was bubbled through the solution and the solution was stirred at room temperature and allowed to react for 24 hours. […] The Thomsen-Friedenreich-disulfide of formula VII (130 mg) was then dissolved in distilled water (1 ml) and degassed with argon for 20 minutes. Dithiothreitol (130 mg) was added and the solution allowed to react for 20 minutes. The excess dithiothreitol was then removed by several extractions with ethyl acetate. The residue was then purified by reverse phase flash chromatography on a C-18 column with an aqueous solution of methanol (10%-40% (v/v)) to yield the Thomsen-Friedenreich-thiol of formula VI.
After 30 min, the reaction was carefully neutralized with strongly acidic ion-exchange resin Amberlite®-120, filtered and concentrated. Purification was accomplished on a Strata® SI-1 silica gel cartridge eluting with 20% MeOH in CH2Cl2.

CC(=O)NC1C(OCCCCCS)OC(CO)C(O)C1OC1OC(CO)C(O)C(O)C1O (centres unmarked) [formula 3]
stability upon standing at room temperature (room temperature): oxidizes to the Thomsen-Friedenreich-disulfide of formula VII | storage stability (dimerization) (stored at −20° C. (under argon)): without significant dimerization for weeks

From patent US20080039816A1, “Carbohydrate-Encapsulated Quantum Dots for Bilogical Imaging” (The Government of the United States of America as …, priority 2004, published 2008)
